These results are taken from US7851637B2, “Compounds and methods for inhibiting the interaction of BCL proteins with binding partners” (Infinity Pharmaceuticals, Inc., priority 2004, dated 2010).

For one test, the target named is Bcl-2 (Homo sapiens, UniProt P10415). Put plainly: Bcl-2 binding affinity analysis (fluorescence polarization binding assay). The essentials: (§1)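 In vitro measurement of compound binding to each protein by fluorescence polarization, described as sensitive and quantitative.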
Background: Polarisation of emitted light reports the rotation of a fluorescent probe.

Another test deals with Bcl-xL (Homo sapiens, UniProt Q07817). Put plainly: Bcl-xL binding affinity analysis (fluorescence polarization binding assay). More on the design: scale not given here. In a few lines:
as §1

Molecules are shown by their SMILES. A value given as a limit tells only on which side of the number the result lay.

Bcl-2, sequence (P10415 whole entry): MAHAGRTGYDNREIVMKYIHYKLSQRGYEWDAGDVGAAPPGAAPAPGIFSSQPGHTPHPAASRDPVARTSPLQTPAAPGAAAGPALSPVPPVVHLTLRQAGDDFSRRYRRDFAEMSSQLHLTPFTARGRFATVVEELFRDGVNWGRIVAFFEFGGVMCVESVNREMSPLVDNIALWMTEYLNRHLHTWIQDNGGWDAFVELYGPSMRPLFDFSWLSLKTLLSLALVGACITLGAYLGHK
Bcl-xL, sequence (Q07817 whole entry): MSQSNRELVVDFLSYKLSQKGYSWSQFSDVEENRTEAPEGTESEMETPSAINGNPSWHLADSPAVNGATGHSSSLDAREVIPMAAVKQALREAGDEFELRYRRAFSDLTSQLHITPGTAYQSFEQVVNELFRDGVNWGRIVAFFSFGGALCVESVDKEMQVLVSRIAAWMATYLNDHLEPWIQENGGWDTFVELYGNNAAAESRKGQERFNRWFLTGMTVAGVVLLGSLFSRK

In general, Ki refers to the dissociation constant of the complex between target and ligand, obtained from inhibition or displacement. For the compound `CC(C)CC(CN(C)C)N(Cc1cccc(CN2OC(CO)C(C(C)O)C2C(=O)NC2CC3CC(C2C)C3(C)C)c1)Cc1cccc2c1OCO2` (stereo not drawn) [Compound 302], the Ki on Bcl-2 is under 800 nM. For the same compound, the “Bcl-XL binding affinity Ki” value on Bcl-xL is “♯”.
In the same order, the values of `COc1cccc(CN(Cc2cccc(CN3OC(CO)C(C(C)O)C3C(=O)NC3CC4CC(C3C)C4(C)C)c2)C(CC(C)C)CN(C)C)c1OC` (stereo not drawn) [Compound 304] are under 800 nM and “♯”.
For `CC(C)CC(CN(C)C)N(Cc1cccc(CN2OC(CO)C(C(C)O)C2C(=O)NC2CC3CC(C2C)C3(C)C)c1)CC1CCCC1` (stereo not drawn) [Compound 308] the same measures were under 800 nM and “♯”.
For `CC(C)CC(CN(C)C)N(Cc1cccc(CN2OC(CO)C(C(C)O)C2C(=O)NC2CC3CC(C2C)C3(C)C)c1)Cc1ccccc1N1CCN(C)CC1` (stereo not drawn) [Compound 315] the same measures were under 800 nM and “♯”.
As for `CC(C)CC(CN(C)C)N(Cc1cccc(CN2OC(CO)C(C(C)O)C2C(=O)NC2CC3CC(C2C)C3(C)C)c1)Cc1ccc(F)cc1O` (stereo not drawn) [Compound 329], the Ki at Bcl-2 is under 800 nM. Also, on Bcl-xL, the “Bcl-XL binding affinity Ki” value is given as “♯”.
For the compound `CSc1ccccc1CN(Cc1cccc(CN2OC(CO)C(C(C)O)C2C(=O)NC2CC3CC(C2C)C3(C)C)c1)C(CC(C)C)CN(C)C` (stereo not drawn) [Compound 330], on Bcl-2, the Ki was under 800 nM. For the same compound, at Bcl-xL, the “Bcl-XL binding affinity Ki” value is listed as “♯”.
`CC(C)CC(CN(C)C)N(Cc1cccc(CN2OC(CO)C(C(C)O)C2C(=O)NC2CC3CC(C2C)C3(C)C)c1)Cc1ccccc1N1CCOCC1` (stereo not drawn) [Compound 331]: the Ki on Bcl-2 was under 800 nM. Moreover, the “Bcl-XL binding affinity Ki” value at Bcl-xL was “♯”.
For `COc1ccc(O)c(CN(Cc2cccc(CN3OC(CO)C(C(C)O)C3C(=O)NC3CC4CC(C3C)C4(C)C)c2)C(CC(C)C)CN(C)C)c1` (stereo not drawn) [Compound 332] the same measures were under 800 nM and “♯”.
Take `COc1ccc(OC)c(CN(Cc2cccc(CN3OC(CO)C(C(C)O)C3C(=O)NC3CC4CC(C3C)C4(C)C)c2)C(CC(C)C)CN(C)C)c1` (stereo not drawn) [Compound 333]: the inhibitory constant (Ki) at Bcl-2 is under 800 nM. In addition, the “Bcl-XL binding affinity Ki” value at Bcl-xL is listed as “♯”.
For `CCOc1cccc(CN(Cc2cccc(CN3O[C@@H](CO)C([C@H](C)O)[C@H]3C(=O)N[C@H]3C[C@H]4C[C@@H]([C@@H]3C)C4(C)C)c2)[C@@H](CC(C)C)CN(C)C)c1O` (stereo partly drawn) [Compound 334] the same measures were under 800 nM and “♯”.
In turn, `COc1ccc(Br)cc1CN(Cc1cccc(CN2OC(CO)C(C(C)O)C2C(=O)NC2CC3CC(C2C)C3(C)C)c1)C(CC(C)C)CN(C)C` (stereo not drawn) [Compound 335] came in with a Ki at Bcl-2 of under 800 nM. Also, the “Bcl-XL binding affinity Ki” value at Bcl-xL is listed as “♯”.
In the same order, the values of `COc1cccc(O)c1CN(Cc1cccc(CN2OC(CO)C(C(C)O)C2C(=O)NC2CC3CC(C2C)C3(C)C)c1)C(CC(C)C)CN(C)C` (stereo not drawn) [Compound 336] are under 800 nM and “♯”.
In the same order, the values of `Cc1cccc(CN(Cc2cccc(CN3OC(CO)C(C(C)O)C3C(=O)NC3CC4CC(C3C)C4(C)C)c2)C(CC(C)C)CN(C)C)c1O` (stereo not drawn) [Compound 337] are under 800 nM and “♯”.
In the same order, the values of `CC(C)CC(CN(C)C)N(Cc1cccc(CN2OC(CO)C(C(C)O)C2C(=O)NC2CC3CC(C2C)C3(C)C)c1)Cc1cccc(C(C)(C)C)c1O` (stereo not drawn) [Compound 338] are under 800 nM and “♯”.
Regarding `CC(O)C1C(CO)ON(Cc2cccc(CN(CCN(C)C)Cc3ccccc3-c3ccc(F)cc3)c2)C1C(=O)NC1CC2CC(C1C)C2(C)C` (stereo not drawn) [Compound 341], the Ki at Bcl-2 is under 800 nM. The “Bcl-XL binding affinity Ki” value at Bcl-xL is “♯”.
For `CC(O)C1C(CO)ON(Cc2cccc(CN(CCN(C)C)Cc3ccccc3-c3cccc(F)c3)c2)C1C(=O)NC1CC2CC(C1C)C2(C)C` (stereo not drawn) [Compound 342] the same measures were under 800 nM and “♯”.
For `C[C@@H]1[C@@H](NC(=O)[C@@H]2C([C@H](C)O)[C@H](CO)ON2Cc2cccc(CN(CCN(C)C)Cc3ccccc3-c3ccccc3F)c2)C[C@H]2C[C@@H]1C2(C)C` (stereo partly drawn) [Compound 343] the same measures were under 800 nM and “♯”.
At Bcl-2, `CC(O)C1C(CO)ON(Cc2cccc(CN(CCN(C)C)CC3CC=CCC3)c2)C1C(=O)NC1CC2CC(C1C)C2(C)C` (stereo not drawn) [Compound 350] registered a Ki of under 800 nM. Also, the “Bcl-XL binding affinity Ki” value on Bcl-xL is given as “♯”.
For `CC(O)C1C(CO)ON(Cc2cccc(CN(CCN(C)C)Cc3ccccc3N3CCOCC3)c2)C1C(=O)NC1CC2CC(C1C)C2(C)C` (stereo not drawn) [Compound 364] the same measures were under 800 nM and “♯”.
With `Cc1ccccc1CN(CCN(C)C)Cc1cccc(CN2OC(CO)C(C(C)O)C2C(=O)NC2CC3CC(C2C)C3(C)C)c1` (stereo not drawn) [Compound 372], the inhibition constant Ki at Bcl-2 was under 800 nM. Besides, the “Bcl-XL binding affinity Ki” value at Bcl-xL is “♯”.
As to `COc1cccc(CN(CCN(C)C)Cc2cccc(CN3OC(CO)C(C(C)O)C3C(=O)NC3CC4CC(C3C)C4(C)C)c2)c1` (stereo not drawn) [Compound 381], the inhibition constant Ki at Bcl-2 is under 800 nM. Besides, on Bcl-xL, the “Bcl-XL binding affinity Ki” value is reported as “♯”.
In the same order, the values of `CC(O)C1C(CO)ON(Cc2cccc(CN(CCN(C)C)CC3CCCOC3)c2)C1C(=O)NC1CC2CC(C1C)C2(C)C` (stereo not drawn) [Compound 382] are under 800 nM and “♯”.
In the same order, the values of `CC(O)C1C(CO)ON(Cc2cccc(CN(CCN(C)C)Cc3ccccc3N3CCN(C)CC3)c2)C1C(=O)NC1CC2CC(C1C)C2(C)C` (stereo not drawn) [Compound 385] are under 800 nM and “♯”.
In the same order, the values of `C[C@@H]1[C@@H](NC(=O)[C@@H]2C([C@H](C)O)[C@H](CO)ON2Cc2cccc(CN(CCN(C)C)CC3CC4C=CC3C4)c2)C[C@H]2C[C@@H]1C2(C)C` (stereo partly drawn) [Compound 401] are under 800 nM and “♯”.
`COCCOc1cccc(CN(CCN(C)C)Cc2cccc(CN3OC(CO)C(C(C)O)C3C(=O)NC3CC4CC(C3C)C4(C)C)c2)c1` (stereo not drawn) [Compound 406] had an inhibitory constant (Ki) at Bcl-2 of under 800 nM. Further, at Bcl-xL, the “Bcl-XL binding affinity Ki” value was “♯”.
At Bcl-2, `COCCOCCOc1cccc(CN(CCN(C)C)Cc2cccc(CN3OC(CO)C(C(C)O)C3C(=O)NC3CC4CC(C3C)C4(C)C)c2)c1` (stereo not drawn) [Compound 407] gave an inhibition constant (Ki) of under 800 nM. For the same compound, the “Bcl-XL binding affinity Ki” value on Bcl-xL is reported as “♯”.
In the same order, the values of `CC(O)C1C(CO)ON(Cc2cccc(CN(CCN(C)C)Cc3ccccc3-c3ccc(Cl)cc3)c2)C1C(=O)NC1CC2CC(C1C)C2(C)C` (stereo not drawn) [Compound 409] are under 800 nM and “♯”.
As for `C[C@@H]1[C@@H](NC(=O)[C@@H]2C([C@H](C)O)[C@H](CO)ON2Cc2cccc(CN(CCN(C)C)Cc3ccccc3N3CCCCC3)c2)C[C@H]2C[C@@H]1C2(C)C` (stereo partly drawn) [Compound 410], the Ki on Bcl-2 was under 800 nM. Besides, the “Bcl-XL binding affinity Ki” value on Bcl-xL was “♯”.
At Bcl-2, `CCN(CC)CCN(Cc1cccc(CN2OC(CO)C(C(C)O)C2C(=O)NC2CC3CC(C2C)C3(C)C)c1)CC1CCCCC1` (stereo not drawn) [Compound 419] gave an inhibition constant Ki of under 800 nM. For the same compound, the “Bcl-XL binding affinity Ki” value on Bcl-xL is on record as “♯”.
For `CCCC(CN(C)C)N(Cc1cccc(CN2OC(CO)C(C(C)O)C2C(=O)NC2CC3CC(C2C)C3(C)C)c1)Cc1ccccc1Cl` (stereo not drawn) [Compound 438] the same measures were under 800 nM and “♯”.
For `C[C@@H]1[C@@H](NC(=O)[C@@H]2C([C@H](C)O)[C@H](CO)ON2Cc2cccc(CN(Cc3ccccc3)C[C@@H]3CCCN3C(=O)OCc3ccccc3)c2)C[C@H]2C[C@@H]1C2(C)C` (stereo partly drawn) [Compound 439], the inhibition constant Ki at Bcl-2 fell in the range of 800 to 6000 nM. The “Bcl-XL binding affinity Ki” value on Bcl-xL is on record as “♯”.
Consider `CCC(C)C(CN(C)C)N(Cc1cccc(CN2OC(CO)C(C(C)O)C2C(=O)NC2CC3CC(C2C)C3(C)C)c1)Cc1c(O)cccc1F` (stereo not drawn) [Compound 440], for which the Ki at Bcl-2 is under 800 nM. Besides, the “Bcl-XL binding affinity Ki” value on Bcl-xL is listed as “♯”.
In the same order, the values of `C[C@@H]1[C@@H](NC(=O)[C@@H]2C([C@H](C)O)[C@H](CO)ON2Cc2cccc(CN(CCN(C)C)C(c3ccccc3)c3ccccc3)c2)C[C@H]2C[C@@H]1C2(C)C` (stereo partly drawn) [Compound 441] are under 800 nM and “♯”.
`CC(O)C1C(CO)ON(Cc2cccc(CNC(CCc3ccccc3)CN(C)C)c2)C1C(=O)NC1CC2CC(C1C)C2(C)C` (stereo not drawn) [Compound 445] had a Ki on Bcl-2 of under 800 nM. Further, the “Bcl-XL binding affinity Ki” value on Bcl-xL is reported as “♯”.
Compound `CC(O)C1C(CO)ON(Cc2cccc(CN(C)CC(=O)N(C)C)c2)C1C(=O)NC1CC2CC(C1C)C2(C)C` (stereo not drawn) [Compound 446] returned an inhibition constant (Ki) at Bcl-2 of under 800 nM. In addition, on Bcl-xL, the “Bcl-XL binding affinity Ki” value is “♯”.
For `CC(O)C1C(CO)ON(Cc2cccc(CN3CCC(c4ccccc4)C3CN(C)C)c2)C1C(=O)NC1CC2CC(C1C)C2(C)C` (stereo not drawn) [Compound 450] the same measures were under 800 nM and “♯”.
In the same order, the values of `CC(O)C1C(CO)ON(Cc2cccc(CN3CC(c4ccccc4)CC3CN(C)C)c2)C1C(=O)NC1CC2CC(C1C)C2(C)C` (stereo not drawn) [Compound 457] are under 800 nM and “♯”.
In the same order, the values of `CC(O)C1C(CO)ON(Cc2cccc(CN3CCN(C(=O)OCc4ccccc4)CC3)c2)C1C(=O)NC1CC2CC(C1C)C2(C)C` (stereo not drawn) [Compound 458] are 800 to 6000 nM and “♯”.
In turn, `CC(O)C1C(CO)ON(Cc2cccc(CNC(Cc3ccccc3)CN(C)C)c2)C1C(=O)NC1CC2CC(C1C)C2(C)C` (stereo not drawn) [Compound 467] registered a Ki at Bcl-2 of under 800 nM. Also, at Bcl-xL, the “Bcl-XL binding affinity Ki” value is reported as “♯”.
For `CC(O)C1C(CO)ON(Cc2cccc(CNC(CCc3ccccc3)CN(C)C)c2)C1C(=O)NC1CC2CC(C1C)C2(C)C` (stereo not drawn) [Compound 468] the same measures were under 800 nM and “♯”.
In the same order, the values of `CC(O)C1C(CO)ON(Cc2cccc(CN3Cc4ccccc4C3C(=O)N(C)C)c2)C1C(=O)NC1CC2CC(C1C)C2(C)C` (stereo not drawn) [Compound 469] are under 800 nM and “♯”.
For `CC(O)C1C(CO)ON(Cc2cccc(CN(CCN(C)C)C(C)(C)c3ccccc3)c2)C1C(=O)NC1CC2CC(C1C)C2(C)C` (stereo not drawn) [Compound 475] the same measures were under 800 nM and “♯”.
